Test results taken from patent US10233191B2, “Fused piperidine amides as modulators of ion channels” (Vertex Pharmaceuticals Incorporated, priority 2013, dated 2019).
pIC50: −log10 of the molar value.

Target: T1, NaV 1.7 (Homo sapiens, UniProt Q15858)
T1 construct: expressed in transfected cells; host or cells: HEK cells
Assay: E-VIPR optical membrane potential assay with electrical stimulation
Type: cell-based
Settings: active against one or more sodium channels; assay/subtype not specified in Table 4; read-out: IC50 Binned Activity Data
Summary of the method: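 HEK cells expressing human NaV1.7, loaded with CC2-DMPE/DiSBAC6(3) FRET dyes, then exposed to compounds for 20-35 min at room temperature (0.625% DMSO). Electrical stimulation applied for 9 s with 400 Hz scanning. Read-out is the background-subtracted 460/580 nm emission ratio, normalized.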

T1 sequence (Q15858 whole entry): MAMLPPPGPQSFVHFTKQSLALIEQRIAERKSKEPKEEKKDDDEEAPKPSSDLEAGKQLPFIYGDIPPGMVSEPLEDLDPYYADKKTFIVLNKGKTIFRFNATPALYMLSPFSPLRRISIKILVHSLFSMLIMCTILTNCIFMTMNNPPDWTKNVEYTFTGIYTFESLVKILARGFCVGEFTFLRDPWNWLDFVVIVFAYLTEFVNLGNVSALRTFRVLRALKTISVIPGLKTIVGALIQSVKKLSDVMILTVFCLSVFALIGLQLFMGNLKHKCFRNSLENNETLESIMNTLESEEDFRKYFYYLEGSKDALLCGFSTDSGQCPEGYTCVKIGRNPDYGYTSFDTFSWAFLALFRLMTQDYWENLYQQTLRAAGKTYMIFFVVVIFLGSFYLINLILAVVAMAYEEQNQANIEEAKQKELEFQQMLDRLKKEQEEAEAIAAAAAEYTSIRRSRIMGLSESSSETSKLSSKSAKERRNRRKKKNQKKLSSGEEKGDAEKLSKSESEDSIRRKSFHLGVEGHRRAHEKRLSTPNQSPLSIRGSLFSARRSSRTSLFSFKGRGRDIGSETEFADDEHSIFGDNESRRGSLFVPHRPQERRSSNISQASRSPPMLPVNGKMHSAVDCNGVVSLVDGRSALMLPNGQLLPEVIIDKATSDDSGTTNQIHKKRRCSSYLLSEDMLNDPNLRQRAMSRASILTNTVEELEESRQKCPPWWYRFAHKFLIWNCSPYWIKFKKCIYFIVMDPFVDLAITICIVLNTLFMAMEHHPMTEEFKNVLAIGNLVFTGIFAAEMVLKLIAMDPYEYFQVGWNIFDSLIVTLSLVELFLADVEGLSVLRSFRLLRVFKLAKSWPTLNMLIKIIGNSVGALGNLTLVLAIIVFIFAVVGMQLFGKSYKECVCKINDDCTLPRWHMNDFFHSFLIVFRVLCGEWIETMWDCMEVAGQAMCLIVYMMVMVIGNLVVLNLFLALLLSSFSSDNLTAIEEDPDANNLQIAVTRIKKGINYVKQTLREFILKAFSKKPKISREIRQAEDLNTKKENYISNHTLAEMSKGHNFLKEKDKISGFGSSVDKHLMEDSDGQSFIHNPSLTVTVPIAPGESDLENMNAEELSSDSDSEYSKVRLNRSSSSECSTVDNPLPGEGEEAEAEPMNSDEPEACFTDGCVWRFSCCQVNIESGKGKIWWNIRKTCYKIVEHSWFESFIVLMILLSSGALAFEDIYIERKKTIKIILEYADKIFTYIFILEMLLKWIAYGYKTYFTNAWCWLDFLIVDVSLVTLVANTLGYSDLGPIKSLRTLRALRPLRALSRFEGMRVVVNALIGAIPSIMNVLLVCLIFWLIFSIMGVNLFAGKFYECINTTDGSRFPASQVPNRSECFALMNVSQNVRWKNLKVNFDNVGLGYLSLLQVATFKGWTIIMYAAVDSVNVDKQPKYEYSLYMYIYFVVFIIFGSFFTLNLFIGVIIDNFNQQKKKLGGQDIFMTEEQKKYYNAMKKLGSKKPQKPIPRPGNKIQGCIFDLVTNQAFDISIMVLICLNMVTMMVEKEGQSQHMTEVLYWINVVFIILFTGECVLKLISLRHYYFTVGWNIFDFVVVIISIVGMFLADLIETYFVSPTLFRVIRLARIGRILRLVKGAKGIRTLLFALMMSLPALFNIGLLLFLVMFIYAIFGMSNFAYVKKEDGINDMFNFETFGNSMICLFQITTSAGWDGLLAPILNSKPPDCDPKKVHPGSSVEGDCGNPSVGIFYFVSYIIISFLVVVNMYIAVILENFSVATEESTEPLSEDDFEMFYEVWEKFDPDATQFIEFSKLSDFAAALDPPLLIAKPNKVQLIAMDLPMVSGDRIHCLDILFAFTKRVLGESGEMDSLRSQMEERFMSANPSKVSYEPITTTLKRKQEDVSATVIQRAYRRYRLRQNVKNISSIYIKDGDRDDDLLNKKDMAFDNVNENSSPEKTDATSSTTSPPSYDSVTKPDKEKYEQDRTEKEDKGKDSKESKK

Structure (SMILES) | pIC50
Cc1cc(C(=O)N2CCC3(c4ccccc4)CC3C2)ccc1OCC(C)(C)O (stereo not shown) [Compound 171] | ≥ 5.70
[2H]C1([2H])OC2CN(C(=O)c3ccc(OCC4CC(F)(F)C4)c(OC)c3)CC[C@]2(c2cc(F)cc(F)c2)O1 (stereo partly shown) [Compound 172] | ≥ 5.70
[2H]C1([2H])OC2CN(C(=O)c3ccc(OC(C)C(F)(F)F)c(OC)c3)CC[C@]2(c2cc(F)cc(F)c2)O1 (stereo partly shown) [Compound 173] | ≥ 5.70
[2H]C1([2H])OC2CN(C(=O)c3ccc(OCCOC(F)(F)F)c(OC)c3)CC[C@]2(c2cc(F)cc(F)c2)O1 (stereo partly shown) [Compound 174] | ≥ 5.70
COc1nc(C(=O)N2CC[C@]3(c4cccc(Cl)c4)OCOC3C2)ccc1OCC1CC(F)(F)C1 (stereo partly shown) [Compound 175] | ≥ 5.70
[2H]C1([2H])OC2CN(C(=O)c3ccc(OCC4CC(F)(F)C4)c(OC)c3)CC[C@]2(c2cccc(F)c2)O1 (stereo partly shown) [Compound 177] | ≥ 5.70
COc1nc(C(=O)N2CCC3(c4ccccc4)CC3C2)ccc1OCCOC(F)(F)F (stereo not shown) [Compound 178] | ≥ 5.70
COc1nc(C(=O)N2CC[C@]3(c4cccc(F)c4)OCOC3C2)ccc1OCC1CC(F)(F)C1 (stereo partly shown) [Compound 180] | ≥ 5.70
COc1nc(C(=O)N2CC[C@]3(c4cccc(Cl)c4)OCOC3C2)ccc1OCCOC(F)(F)F (stereo partly shown) [Compound 183] | ≥ 5.70
COc1cc(C(=O)N2CC[C@]3(c4cccc(F)c4F)OCOC3C2)ccc1OCC1CC(F)(F)C1 (stereo partly shown) [Compound 184] | ≥ 5.70
COc1nc(C(=O)N2CC[C@]3(c4cccc(F)c4)OCOC3C2)ccc1OCC(F)(F)C(F)F (stereo partly shown) [Compound 185] | ≥ 5.70
COc1cc(C(=O)N2CC[C@]3(c4cccc(F)c4F)OCOC3C2)ccc1OC(C)C(F)(F)F (stereo partly shown) [Compound 187] | ≥ 5.70
COc1nc(C(=O)N2CC[C@]3(c4cccc(F)c4)OCOC3C2)ccc1OCCOC(F)(F)F (stereo partly shown) [Compound 188] | ≥ 5.70
[2H]C1([2H])OC2CN(C(=O)c3ccc(OCCOC(F)(F)F)c(OC)n3)CC[C@]2(c2cccc(F)c2)O1 (stereo partly shown) [Compound 189] | ≥ 5.70
COc1cc(C(=O)N2CC[C@]3(c4cccc(F)c4)OCOC3C2)ccc1OCC1CC(F)(F)C1 (stereo partly shown) [Compound 193] | ≥ 5.70
COc1nc(C(=O)N2CC[C@]3(c4cccc(F)c4)OCOC3C2)ccc1OCC1C2CC(F)(F)CC12 (stereo partly shown) [Compound 196] | ≥ 5.70
COc1cc(C(=O)N2CC[C@]3(c4cccc(F)c4)OCOC3C2)ccc1N(C)CC1CC(F)(F)C1 (stereo partly shown) [Compound 199] | ≥ 5.70
COc1nc(C(=O)N2CC[C@]3(c4cccc(F)c4)OCOC3C2)ccc1OCCC1CC(F)(F)C1 (stereo partly shown) [Compound 200] | ≥ 5.70
COc1ccnc([C@]23CCN(C(=O)c4ccc(OCC5CC(F)(F)C5)c(OC)c4)CC2OCO3)c1 (stereo partly shown) [Compound 203] | ≥ 5.70
COc1cc(C(=O)N2CC[C@]3(c4cccc(F)c4)OCOC3C2)ccc1NCC1CC(F)(F)C1 (stereo partly shown) [Compound 211] | ≥ 5.70
COc1cc(C(=O)N2CC[C@@]3(c4cccc(F)c4)OCOC3C2)ccc1OC(C)C(F)(F)F (stereo partly shown) [Compound 212] | 5.30 to 5.70
COc1cc(C(=O)N2CC[C@@]3(c4cccc(F)c4)OCOC3C2)ccc1OCC1CC(F)(F)C1 (stereo partly shown) [Compound 215] | ≥ 5.70
O=C(c1ccc(OCCC(F)(F)F)c(C(F)(F)F)c1)N1CC[C@@]2(c3cccc(F)c3)OCOC2C1 (stereo partly shown) [Compound 218] | ≥ 5.70
COc1nc(C(=O)N2CC[C@]3(c4cccc(F)c4)OCOC3C2)ccc1OCC1CC2(C1)CC(F)(F)C2 (stereo partly shown) [Compound 223] | ≥ 5.70
COc1nc(C(=O)N2CC[C@]3(c4cccc(F)c4)OCOC3C2)ccc1OC(C)C1CC(F)(F)C1 (stereo partly shown) [Compound 224] | ≥ 5.70
COc1cc(C(=O)N2CC[C@]3(c4cc(F)cc(F)c4)OCOC3C2)ccc1OCC1CC(F)(F)C1 (stereo partly shown) [Compound 225] | ≥ 5.70
COc1nc(C(=O)N2CC[C@]3(c4cccc(F)c4)OCOC3C2)ccc1OCC(F)(F)C1CC1 (stereo partly shown) [Compound 227] | ≥ 5.70
COc1nc(C(=O)N2CC[C@]3(c4cccc(F)c4)OCOC3C2)ccc1O[C@H]1CC2[C@H](C1)C2(F)F (stereo partly shown) [Compound 229] | ≥ 5.70
COc1nc(C(=O)N2CC[C@]3(c4cccc(F)c4)OCOC3C2)ccc1O[C@@H]1CC2[C@H](C1)C2(F)F (stereo partly shown) [Compound 230] | ≥ 5.70
COc1nc(C(=O)N2CC[C@]3(c4cccc(F)c4)OCOC3C2)ccc1OC1CC=CC1 (stereo partly shown) [Compound 231] | ≥ 5.70

The next lines start with the values.

pIC50 | Structure (SMILES)
≥ 5.70 | Cc1cc(C(=O)N2CC[C@]3(c4ccccn4)OCOC3C2)ccc1OCCOC(F)(F)F (stereo partly shown) [Compound 165]
≥ 5.70 | O=C(c1ccc(OCC(F)(F)C(F)F)c(Cl)c1)N1CC[C@]2(c3ccccn3)OCOC2C1 (stereo partly shown) [Compound 166]
≥ 5.70 | Cc1cc(C(=O)N2CC[C@]3(c4nccs4)OCOC3C2)ccc1OCCOC(F)(F)F (stereo partly shown) [Compound 167]
≥ 5.70 | Cc1cc(C(=O)N2CC[C@@]3(c4nccs4)OCOC3C2)ccc1OCCOC(F)(F)F (stereo partly shown) [Compound 168]
≥ 5.70 | COc1cc(C(=O)N2CC[C@]3(c4cccc(C(F)(F)F)n4)OCOC3C2)ccc1OCCOC(F)(F)F (stereo partly shown) [Compound 169]
≥ 5.70 | COc1cc(C(=O)N2CC[C@]3(c4cccc(Cl)c4)OCOC3C2)ccc1OC(C)C(F)(F)F (stereo partly shown) [Compound 170]
≥ 5.70 | COc1cc(C(=O)N2CC[C@]3(c4cccc(Cl)c4)OCOC3C2)ccc1OCC1CC(F)(F)C1 (stereo partly shown) [Compound 176]
≥ 5.70 | COc1cc(C(=O)N2CC[C@]3(c4cc(C(F)(F)F)ccn4)OCOC3C2)ccc1OCCOC(F)(F)F (stereo partly shown) [Compound 179]
≥ 5.70 | [2H]C1([2H])OC2CN(C(=O)c3ccc(OCCOC(F)(F)F)c(OC)c3)CC[C@]2(c2cccc(F)c2)O1 (stereo partly shown) [Compound 181]
≥ 5.70 | Cc1cc(C(=O)N2CC[C@]3(c4ncccc4Cl)OCOC3C2)ccc1OCCOC(F)(F)F (stereo partly shown) [Compound 182]
≥ 5.70 | COc1cc(C(=O)N2CC[C@]3(c4cccc(F)c4F)OCOC3C2)ccc1OCCOC(F)(F)F (stereo partly shown) [Compound 186]
≥ 5.70 | COc1cccc([C@]23CCN(C(=O)c4ccc(OCCOC(F)(F)F)c(C)c4)CC2OCO3)n1 (stereo partly shown) [Compound 190]
≥ 5.70 | Cc1nc(C(=O)N2CCC3(c4ccccc4)CC3C2)ccc1OCCOC(F)(F)F (stereo not shown) [Compound 191]
≥ 5.70 | COc1cccc([C@]23CCN(C(=O)c4ccc(OCCOC(F)(F)F)c(OC)c4)CC2OCO3)n1 (stereo partly shown) [Compound 192]
≥ 5.70 | Cc1cccc([C@]23CCN(C(=O)c4ccc(OCCOC(F)(F)F)c(C)c4)CC2OCO3)n1 (stereo partly shown) [Compound 194]
≥ 5.70 | COc1cc(C(=O)N2CCC3(c4ccccc4)CC3C2)ccc1OCCOC(F)(F)F (stereo not shown) [Compound 195]
≥ 5.70 | COc1cc(C(=O)N2CC[C@]3(c4cc(C(F)(F)F)ccn4)OCOC3C2)ccc1OCC(F)(F)C(F)F (stereo partly shown) [Compound 197]
≥ 5.70 | COc1cc(C(=O)N2CC[C@]3(c4cc(C(F)(F)F)ccn4)OCOC3C2)ccc1OCC1(C(F)(F)F)CC1 (stereo partly shown) [Compound 198]
≥ 5.70 | O=C(c1ccc(OCCOC(F)(F)F)c(Cl)c1)N1CC[C@]2(c3ccccn3)COC2C1 (stereo partly shown) [Compound 201]

pIC50 | Structure (SMILES)
≥ 5.70 | O=C(c1ccc(OCCOC(F)(F)F)c(Cl)c1)N1CC[C@@]2(c3ccccn3)COC2C1 (stereo partly shown) [Compound 202]
≥ 5.70 | COc1cc(C(=O)N2CC[C@]3(c4cc(C(F)(F)F)ccn4)OCOC3C2)ccc1OCC1CCC(F)(F)C1 (stereo partly shown) [Compound 204]
< 5.30 | CC(C)(F)COc1ccc(C(=O)N2CC[C@@]3(c4ccccn4)CO[C@H]3C2)cc1C(F)(F)F [Compound 205]
≥ 5.70 | Cc1cc(C(=O)N2CC[C@@]3(c4ccccn4)COC3C2)ccc1OCCOC(F)(F)F (stereo partly shown) [Compound 206]
≥ 5.70 | O=C(c1ccc(OCC2(C(F)(F)F)CC2)c(Cl)c1)N1CC[C@]2(c3ccccn3)COC2C1 (stereo partly shown) [Compound 207]
≥ 5.70 | O=C(c1ccc(OCC2CC(F)(F)C2)c(Cl)c1)N1CC[C@@]2(c3ccccn3)COC2C1 (stereo partly shown) [Compound 208]
≥ 5.70 | COc1nc(C(=O)N2CC[C@@]3(c4ccccn4)COC3C2)ccc1OCC(F)(F)C(F)F (stereo partly shown) [Compound 209]
5.30 to 5.70 | COc1cc(C(=O)N2CC[C@@]3(c4ccccn4)COC3C2)ccc1OCC1CC(F)(F)C1 (stereo partly shown) [Compound 210]
≥ 5.70 | COc1nc(C(=O)N2CC[C@@]3(c4cccc(F)c4)OCOC3C2)ccc1OCC1(C(F)(F)F)CC1 (stereo partly shown) [Compound 213]
≥ 5.70 | COc1cc(C(=O)N2CC[C@@]3(c4cccc(F)c4)OCOC3C2)ccc1OCCOC(F)(F)F (stereo partly shown) [Compound 214]
≥ 5.70 | O=C(c1ccc(OCCOC(F)(F)F)c(Cl)c1)N1CC[C@@]2(c3cccc(F)c3)OCOC2C1 (stereo partly shown) [Compound 216]
5.30 to 5.70 | CC(C)(F)COc1ccc(C(=O)N2CC[C@@]3(c4cccc(F)c4)OCOC3C2)cc1Cl (stereo partly shown) [Compound 217]
< 5.30 | CC(C)(F)COc1ccc(C(=O)N2CC[C@@]3(c4cccc(F)c4)OCOC3C2)cc1C(F)(F)F (stereo partly shown) [Compound 219]
5.30 to 5.70 | O=C(c1ccc(OCCOC(F)(F)F)c(F)c1)N1CC[C@@]2(c3cccc(F)c3)OCOC2C1 (stereo partly shown) [Compound 220]
≥ 5.70 | COc1cc(Cl)nc([C@]23CCN(C(=O)c4ccc(OCCOC(F)(F)F)c(OC)c4)CC2OCO3)c1 (stereo partly shown) [Compound 221]
≥ 5.70 | COc1cc(C(=O)N2CC[C@]3(c4cc(C(F)(F)F)ccn4)OCOC3C2)ccc1OCCC1CC1(F)F (stereo partly shown) [Compound 222]
≥ 5.70 | COc1cc(C(=O)N2CC[C@]3(c4cc(C(F)(F)F)ccn4)OCOC3C2)ccc1OCC1CC(F)(F)C1 (stereo partly shown) [Compound 226]
≥ 5.70 | COc1cc(C(=O)N2CC[C@]3(c4cccc(F)c4)OCOC3C2)ccc1OCCOC(F)(F)F (stereo partly shown) [Compound 228]
